{"source": "patent US20040072824A1", "about": "“Methods and compositions for the treatment of cancer” (priority 2001, published 2004)", "key": {"[1]": {"system": "lymphocytes from healthy donors", "assay": "Cytotoxicity on lymphocytes from healthy donors", "assay_type": "cell-based, human", "settings": "48 hours after treatment, even at 1:1,000 dilution; three healthy donors", "protocol": "(§1) Several dilutions of each compound tested were added to the wells (12 wells per plate, TPP), and 1 ml of cells from the parent solution was added per well after a line had been completed. The dilutions were made using the culture medium, and following dilutions were tested: control, which contained no compound of this invention; 1:100; 1:1,000; 1:2,000; 1:5,000; and 1:10,000. The starting concentrations for these dilutions were: 50 mg/ml for compound A; 10 mg/ml for compound B; 25 mg/ml for compound C; and 5 mg/ml for compound D. The results were analyzed by manual counting and Alamar reduced assay.\nThe blood from healthy donors was collected on citrate and diluted 1:1 with 0.15M NaCl. The dilution (6 ml) was loaded onto 3 ml of lymphoprep® (Nycomed), and the mixture was centrifuged at 800 g for 30 minutes at room temperature. The white cells were isolated and washed with RPMI1640 and 10% FBS. The white cells were diluted to provide 450,000 cells/m in RPMI1640/10% FSB medium. The tests for the compounds of this invention were performed according to the same procedures described in Section 5.1.1."}, "[2]": {"system": "Poly ADP-Ribose Polymerase (PARP)", "assay": "PARP cleavage in treated U937 cells (western blot)", "assay_type": "cell-based", "settings": "24 hours", "protocol": "U937 cells were treated with various concentrations of hydroxyzine and promethazine for 24 hours. The proteins were isolated from these cells and loaded onto a gel for a western blot analysis. A specific anti-PARP antibody was used to visualize the location of PARP."}, "[3]": {"system": "K562, U937, Jurkat, T47-D, MCF7, BT20 and 184B5 cell lines", "assay": "Cytotoxicity in malignant and immortalized cell lines (manual counting, Alamar assay)", "assay_type": "cell-based", "settings": "for cytotoxic activity: dilutions greater than 1:1,000, especially about 1:10,000; for cytotoxicity: dilutions of from 1:100 to 1:1,000, 48 and 144 hours after treatment", "protocol": "These four compounds were added at different concentrations to cultures of various malignant cell lines and normal cells. The cell lines used for these tests were the following:\nAll leukemic cell lines were grown and used in logarithmic phase. After one day of treatment, the cells were isolated, counted and diluted in a regular growth medium to provide the cell density of about 75×10^3 cells/ml for reading on plates at 48 hours after the treatment, and […] for reading at 144 hours after the treatment.\nas §1\n(§2) The cells were grown on their respective propagation medium and seeded 24 hours before the compounds are added. The cells were trypsinized, and 50,000 cells/well and 10,000 cells/well were seeded in order to read the plates at 48 hours and 144 hours after being treated by the compounds, respectively.\n(§3) On the day of the treatment, the medium was replaced by 10 ml each of series dilution of the compounds, consisting of: control, which contained no compound of this invention; 1:100 dilution; 1:1,000 dilution; 1:2,000 dilution; and 1:5,000 dilution. The starting concentrations for these dilutions were: 50 mg/ml for compound A; 10 mg/ml for compound B; 25 mg/ml for compound C; and 5 mg/ml for compound D. The dilution was made using the growth medium.\nA tested compound is regarded as being active in cytotoxicity where the percentage of surviving cells after the treatment with the compound is less than 30%."}, "[4]": {"system": "LoVo cancer cells", "assay": "Cytotoxicity on LoVo cancer cells", "assay_type": "cell-based", "settings": "LoVo colorectal adenocarcinoma cells", "protocol": "as §2, §3"}, "[5]": {"system": "TCTP", "assay": "TCTP expression in treated U937 cells (western blot)", "assay_type": "cell-based", "settings": "24 hours, various dilutions", "protocol": "U937 cells were treated with various dilutions of hydroxyzine, brompheniramine and promethazine for 24 hours as denoted in FIG. 23A. Starting concentrations were: 50 mg/ml for […] (“A”); 10 mg/ml for brompheniramine (“B”); and 25 mg/ml for promethazine (“C”). The proteins were isolated from these cells and loaded onto a gel for western blot analysis. A specific anti-TCTP (anti-HRF) antibody was used to visualize the location of TCTP. […] The level of actin in equal loading of extract was visualized by antiactin antibody (Santa Cruz Biotechnology). No substantial difference between the level of actin in treated and untreated cells was observed."}, "[6]": {"system": "blastic cells from AML patients", "assay": "Inhibition of viability of fresh leukemic cells (trypan blue exclusion)", "assay_type": "cell-based, human", "settings": "Homo sapiens, day 3; for cytotoxicity at 100 µM: 10^-4 M; for cytotoxicity at 10 µM: 10^-5 M", "summary_of_the_method": "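Blasts from AML samples 1 to 5 (least to most differentiated) were incubated with or without anti-histamine derivatives, with Polaramine as negative control. Viable counts by trypan blue exclusion at day 3, with Wright-Giemsa morphology. Values are % growth inhibition versus negative control.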"}, "[7]": {"system": "MDA-MB-231 (breast cancer line)", "assay": "Curative effects on palpable tumors, MDA-MB-231 cells in scid/scid mice", "assay_type": "in vivo", "settings": "11.25 mg/kg or 22.5 mg/kg daily once tumors palpable", "protocol": "In this series of experiments, effects of various compounds of the present invention on tumor development were tested using two protocols. The first protocol is directed to the testing of curative effects of these compounds in different cell lines. In this protocol, cancerous cells are inoculated to the animals, and the inoculated animals were left without any further treatment until the development of tumors. As soon as the tumors became palable (4 mm^3), the compounds of this invention were administered daily to the animals."}, "[8]": {"system": "U937", "assay_type": "in vivo", "settings": "treatment from day 1, cells inoculated after more than 24 hours, daily administration", "protocol": "The second protocol was designed to test the preventive effects of the compounds of this invention on tumorigenesis. In this protocol, the animals have been treated with various compounds of the present invention on day 1. After more than 24 hours, tumoral cells were inoculated. The administration of the compounds of this invention was maintained daily. The cell line used for this test was U937."}, "[9]": {"system": "U937 cells", "assay": "Antineoplastic activity, U937 cells injected in scid/scid mice, treatment from day 1", "assay_type": "in vivo", "settings": "11.25 mg/kg daily intraperitoneally; six mice", "protocol": "Ten million U937 cells were subcutaneously injected into scid/scid mice. One injection was carried out per each of the 6 mice tested per set. The excipient or the compounds tested were administered intraperitoneally on day 1, i.e., the day of U937 cell line inoculation, of the experiment. The excipients or compounds were administered once daily. The tumor sizes were measured on day 5, day 8, day 12, day 14 and day 19 after the injection."}, "[10]": {"settings": "72 h, MEAN over AML patients, read-out: In Vitro Percent Inhibition of Viability, MEAN"}, "[11]": {"settings": "72 h, patient ID 4, FAB AML2, read-out: In Vitro Percent Inhibition of Viability"}, "[12]": {"settings": "72 h, patient ID 14, FAB AML5, read-out: In Vitro Percent Inhibition of Viability"}, "[13]": {"settings": "AML1, 72 h, patient ID 1, FAB AML1, read-out: In Vitro Percent Inhibition of Viability"}}, "note": "Counter-ions that a name gives are not always drawn. Like-named read-outs stand apart in the source and are kept apart here.", "data": [{"smiles": "OCCOCCN1CCN(C(c2ccccc2)c2ccc(Cl)cc2)CC1", "note": "(stereo not shown) [hydroxyzine, hydroxyzine dihydrochloride]", "values": [{"measurement": "surviving cell counts", "setting": "[1]", "value": "substantial"}, {"measurement": "PARP cleavage (induction of apoptosis)", "setting": "[2]", "value": "cleave PARP"}, {"measurement": "cytotoxic activity", "setting": "[3]", "value": "little cytotoxic activity"}, {"measurement": "cytotoxicity", "setting": "[3]", "value": "very good cytotoxicity"}, {"measurement": "growth / resistance of LoVo cells", "setting": "[4]; dihydrochloride", "value": "unaffected"}, {"measurement": "growth / resistance of LoVo cells", "setting": "[4]; listed as A, dihydrochloride", "value": "totally resistant"}, {"measurement": "expression of TCTP", "setting": "[5]", "value": "inhibit the expression of TCTP"}, {"measurement": "cytotoxicity at 100 µM", "setting": "[6]; [10]", "value": 55, "unit": "%"}, {"measurement": "cytotoxicity at 10 µM", "setting": "[6]; [10]", "value": 12, "unit": "%"}, {"measurement": "cytotoxicity at 100 µM", "setting": "[6]; [11]", "value": 44, "unit": "%"}, {"measurement": "cytotoxicity at 10 µM", "setting": "[6]; [11]", "value": 9, "unit": "%"}, {"measurement": "cytotoxicity at 100 µM", "setting": "[6]; [12]", "value": 45, "unit": "%"}, {"measurement": "cytotoxicity at 10 µM", "setting": "[6]; [12]", "value": 18, "unit": "%"}, {"measurement": "cytotoxicity at 100 µM", "setting": "[6]; [13]", "value": 77, "unit": "%"}, {"measurement": "cytotoxicity at 10 µM", "setting": "[6]; [13]", "value": 10, "unit": "%"}]}, {"smiles": "CC(CN1c2ccccc2Sc2ccccc21)N(C)C", "note": "(stereo not shown) [promethazine]", "values": [{"measurement": "surviving cell counts", "setting": "[1]", "value": "substantial"}, {"measurement": "tumor volume", "setting": "[7]", "value": "The same is also true for certain animals"}, {"measurement": "PARP cleavage (induction of apoptosis)", "setting": "[2]", "value": "cleave PARP"}, {"measurement": "cytotoxic activity", "setting": "[3]", "value": "little cytotoxic activity"}, {"measurement": "cytotoxicity", "setting": "[3]", "value": "very good cytotoxicity"}, {"measurement": "growth / resistance of LoVo cells", "setting": "[4]", "value": "unaffected"}, {"measurement": "growth / resistance of LoVo cells", "setting": "[4]; listed as C", "value": "totally resistant"}, {"measurement": "expression of TCTP", "setting": "[5]", "value": "inhibit the expression of TCTP"}, {"measurement": "tumor growth compared to the negative control", "setting": "[8]", "value": "decrease in tumor growth"}, {"measurement": "mice that developed a tumor", "setting": "[9]", "value": "one out of six"}]}]}
